Test results from patent US9891235B2, “Pathway specific assays for predicting irritable bowel syndrome diagnosis” (NESTEC S.A., priority 2013, dated 2018).

Columns and labels:
anti-KYA-L antibody = assay: Competitive assay with biotinylated kynurenic acid, competitors; type: binding, rabbit; conditions: increasing amounts of competitor, FIG. 18
Protocol: Also, the cross-reactivity of the antiserum was tested using a competitive assay as diagramed in FIG. 12B. The biotinylated antigen (e.g., biotinylated Ser-D) was coated onto a streptavidin plate. Serotonin (5-HT) or pathway metabolites thereof (e.g., Tryp, 5-OH Tryp or 5-HIAA) in human serum were derivatized and added to the antiserum. The mixture was added to the plate and incubated for 1 hour at RT. The plate was washed several times with wash buffer. The goat anti-rabbit antibody-HRP conjugate solution was added and incubated for 1 hour at RT. The plate was washed several times in wash buffer. A color substrate was added for the colorimetric reaction and stop solution was added prior to reading the plate at 405 nm.
The cross-reactivity of the anti-KYA-L antibody was tested using the competitive assay described above. Briefly, kynurenic acid metabolites, such as L-kynurenine (Ky), 3-hydroxy-DL-kynurenine (H-Ky) and L-tryptophan (Tryp) were used to compete with biotinylated kynurenic acid for antibody binding.

[1] = Stability of 5-HT and 5-HIAA (TLC, loss of signal); type: physicochemical

Row | Structure (SMILES) | effect of competitor on level of anti-KYA-L detected (anti-KYA-L antibody) | sensitivity to oxygen / stability [1] | time in which degradation occurs ([1]; 4° C., from thawing, TLC (FIG. 3)) | stability (FIG. 4) ([1]; during a period of 1 week)
1 | Nc1c(O)cccc1C(=O)CC(N)C(=O)O (racemic) [H-Ky, 3-hydroxy-DL-kynurenine] | did not change | – | – | –
2 | NCCc1c[nH]c2ccc(O)cc12 [Compound 5-HT, serotonin] | – | very unstable | about 7 hours | unstable
3 | NCCCCCC(=O)Nc1ccc2nc(C(=O)O)cc(O)c2c1 [KYA-L, 6-(6-aminohexanamido)-4-hydroxyquinoline-2-carboxylic acid] | competed | – | – | –
4 | Nc1ccccc1C(=O)C[C@H](N)C(=O)O [Ky, L-kynurenine] | did not change | – | – | –
5 | N[C@@H](Cc1c[nH]c2ccccc12)C(=O)O [Trypt, L-tryptophan] | did not change | – | – | –
